Laboratory results taken from patent US6794402B2, “Bicyclic cyclohexylamines and their use as NMDA receptor antagonists” (Warner-Lambert Company, priority 2000, dated 2004).
Where a name gives a salt, the structure may show the parent alone.

How the values were obtained:
[1] = biological target: T1, [3H]ifenprodil binding site, rat forebrain membranes (Rattus norvegicus, UniProt P35439+Q00960); test: [3H]Ifenprodil binding assay; conditions: 4 nM [3H]-ifenprodil, 2 hours at room temperature
T1 construct: membrane fraction was prepared from frozen adult rat forebrains; tissue Zivic-Miller Laboratories, Inc; host or cells: adult rat forebrain, washed buffy coat membrane fraction
Experimental: All buffers and reagents used in assay incubations or to dissolve drugs were prepared using water purified through a Milli-Q reverse osmosis system (Millipore Corp, Bedford, Mass.) and treated with UV emissions. Prior to use in the assays, buffers were further filtered through a sterile Corning filtration unit (Corning Glass Works, Corning, N.Y.) containing a 0.2-micron filter. Buffer used to rinse the membranes on the assay filters was prepared with purified water, but was not refiltered and was stored no longer than 5 days. Stock solutions of the drugs (usually 10 mM) were dissolved in 20 mM HEPES-KOH buffer pH 7.4 (assay buffer) with the addition of 1 to 5 μL of glacial AcOH, if needed to keep them in solution. For eliprodil the stock solution was buffered with the addition of 10% DMSO. All subsequent dilutions from stock were made in buffer.
An extensively washed buffy coat membrane fraction was prepared from frozen adult rat forebrains (Zivic-Miller Laboratories, Inc., Zelienople, Pa.) as described previously (Coughenour L. L., Cordon, J. J., J. Pharmacol. Exp. Ther., 1997;280:584-592) and stored at −80° C. On the day of the assay, pellets were resuspended in 35 mL of assay buffer at pH 7.4 using a Polytron setting 6. After incubation at 37° C. for 30 minutes in a shaking water bath, the homogenate was centrifuged 40,000×g for 10 minutes at 4° C. The pellets were resuspended in fresh buffer and centrifuged 3 more times before final suspension for use in the assay.
[^3H]Ifenprodil Binding. Triplicate incubations were carried out in a volume of 0.5 mL in 1.3 mL polypropylene tubes (Marsh Biomedical Products Inc., Rochester, N.Y.) for 2 hours at room temperature. Incubations contained test agents, membranes (100-200 μg protein) and 4 nM[^3H]-ifenprodil in 20 mM HEPES-KOH buffer, pH 7.4 (assay buffer). Assays were started by addition of the membranes. Bound radioligand was separated by filtration under reduced pressure using a Tomtec Mach II, 96-well cell harvester (Tomtec Inc., Orange, Colo.). Filtration was through Whatman GF/B glass fiber filters (Whatman Ltd, Maidstone, England), which had been soaked for at least 15 minutes in 0.3% polyethylenimine and allowed to air dry. The filters were rinsed with 3 mL of ice cold assay buffer within 6 seconds. Air was allowed to pass through the filters for an additional 10 seconds to remove residual moisture. The filter mat was supported on a cold (−20° C.) teflon support, and filters from individual wells were separated and placed in Mini Poly-Q vials (Beckman Instruments Inc., Fullerton, Calif.) and filled with 4 mL of scintillation cocktail (Beckman Ready Protein^+). Radioactivity retained on the filter was determined by liquid scintillation spectrophotometry. Nonspecific binding was defined as the binding in the presence of 1 mM ifenprodil. Specific binding was 90%.
Data analysis. Binding curves were statistically analyzed for a best one or two site competition fit using GraphPad Prism software (GraphPad Software Inc., San Diego, Calif.). The normalized data was fit by nonweighted nonlinear regression to either [formula]
Control data was entered as 100%, and no parameters were constrained. Inhibition curves were compared by ANOVA with post test comparisons of the logIC50 using Dunnett's multiple comparisons post test or Student's nonpaired, two-tailed t-test (GraphPad InStat software).

T1 sequence (Q00960 27-1482, other chains not shown): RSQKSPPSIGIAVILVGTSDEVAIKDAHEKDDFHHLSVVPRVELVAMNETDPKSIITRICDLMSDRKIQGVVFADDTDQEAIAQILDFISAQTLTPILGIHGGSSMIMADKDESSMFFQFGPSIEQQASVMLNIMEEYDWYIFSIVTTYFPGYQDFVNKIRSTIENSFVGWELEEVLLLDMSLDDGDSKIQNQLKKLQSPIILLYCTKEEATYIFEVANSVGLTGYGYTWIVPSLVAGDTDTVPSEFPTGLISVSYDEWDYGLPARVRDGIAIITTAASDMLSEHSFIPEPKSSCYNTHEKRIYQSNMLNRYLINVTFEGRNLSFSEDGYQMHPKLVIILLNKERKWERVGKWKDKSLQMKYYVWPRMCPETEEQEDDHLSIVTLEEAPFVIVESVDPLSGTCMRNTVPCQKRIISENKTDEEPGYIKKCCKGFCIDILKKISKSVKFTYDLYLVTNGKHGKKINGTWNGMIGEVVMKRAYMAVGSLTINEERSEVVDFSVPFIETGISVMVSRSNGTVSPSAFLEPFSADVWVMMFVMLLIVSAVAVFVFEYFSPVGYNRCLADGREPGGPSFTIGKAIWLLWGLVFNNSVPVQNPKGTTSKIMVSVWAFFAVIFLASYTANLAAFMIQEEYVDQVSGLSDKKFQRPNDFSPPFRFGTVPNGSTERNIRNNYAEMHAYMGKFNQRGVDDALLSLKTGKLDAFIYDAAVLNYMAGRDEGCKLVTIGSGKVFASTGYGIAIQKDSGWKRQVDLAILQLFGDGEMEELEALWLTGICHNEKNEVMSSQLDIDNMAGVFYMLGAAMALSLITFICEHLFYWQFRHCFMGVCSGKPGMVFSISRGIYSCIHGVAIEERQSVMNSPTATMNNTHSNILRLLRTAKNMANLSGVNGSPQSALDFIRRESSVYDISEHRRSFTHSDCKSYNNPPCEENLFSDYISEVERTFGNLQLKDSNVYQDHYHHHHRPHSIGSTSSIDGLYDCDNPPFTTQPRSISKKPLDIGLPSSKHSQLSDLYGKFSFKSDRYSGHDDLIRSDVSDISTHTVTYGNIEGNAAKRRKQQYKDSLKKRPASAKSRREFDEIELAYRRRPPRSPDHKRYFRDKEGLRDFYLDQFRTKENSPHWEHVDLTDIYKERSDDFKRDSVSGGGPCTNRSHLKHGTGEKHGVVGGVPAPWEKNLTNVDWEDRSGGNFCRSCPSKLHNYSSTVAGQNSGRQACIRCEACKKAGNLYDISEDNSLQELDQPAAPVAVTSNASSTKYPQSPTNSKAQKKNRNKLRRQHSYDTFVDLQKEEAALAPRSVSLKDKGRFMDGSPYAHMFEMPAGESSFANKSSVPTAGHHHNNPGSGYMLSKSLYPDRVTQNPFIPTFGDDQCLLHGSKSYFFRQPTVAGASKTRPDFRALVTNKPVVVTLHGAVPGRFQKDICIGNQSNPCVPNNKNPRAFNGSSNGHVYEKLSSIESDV

| Structure (SMILES) | melting point | IC50 [1] |
| --- | --- | --- |
| O=c1[nH]c2ccc([C@H]3CC[C@H](NCCCc4ccc(F)cc4)CC3)cc2o1 (as salt: HCl) [Example 4a, 6-{trans-4-[3-(4-Fluorophenyl)propylamino]cyclohexyl}-3H-benzoxazol-2-one] | 293 to 307 °C |  |
| CC(C)CN(CCCc1ccc(F)cc1)[C@H]1CC[C@H](c2ccc3[nH]c(=O)oc3c2)CC1 (as salt: HCl) [Example 33, 6-(trans-4-{[3-(4-Fluorophenyl)propyl]isobutylamino}cyclohexyl)-3H-benzoxazol-2-one] | 199 to 201 °C |  |
| NCCN(CCCc1ccc(F)cc1)[C@H]1CC[C@H](c2ccc3[nH]c(=O)oc3c2)CC1 (as salt: HCl) [Example 35, 6-(trans-4-{(2-Aminoethyl)-[3-(4-fluorophenyl)propyl]amino}cyclohexyl)-3H-benzoxazol-2-one] | 161 to 169 °C |  |
| CN(CCCc1ccc(C(F)(F)F)cc1)[C@H]1CC[C@H](c2ccc3[nH]c(=O)oc3c2)CC1 (as salt: HCl) [Example 23, 6-{trans-4-[Methyl-3-(4-Trifluoromethylphenyl)propylamino]cyclohexyl}-3H-benzoxazol-2-one] | 227 to 234 °C |  |
| O=c1[nH]c2ccc(C3=CCC(NCCCc4ccccc4)CC3)cc2o1 (centres unmarked) [Example 6, 6-[4-(3-Phenylpropylamino)cyclohex-1-enyl]-3H-benzoxazol-2-one] | 293 to 295 °C | 0.009 µM |
| Cc1cc2[nH]c(=O)oc2cc1[C@H]1CC[C@H](N(C)CCCc2ccc(F)cc2)CC1 (as salt: salt) [Example 64, 6-(4-{[3-(4-Fluorophenyl)propyl]methyl-amino}cyclohexyl)-5-methyl-3H-benzoxazol-2-one] | 264 to 267 °C |  |
| NC(=O)CN(CCCc1ccc(F)cc1)[C@H]1CC[C@H](c2ccc3[nH]c(=O)oc3c2)CC1 (as salt: HCl) [Example 34, 2-{[3-(4-Fluorophenyl)propyl]-[4-(2-oxo-2,3-dihydro-benzoxazol-6-yl)-cyclohexyl]amino}acetamide] | 266 to 270 °C |  |
| CN(CCCc1ccc(F)c(F)c1F)[C@H]1CC[C@H](c2ccc3[nH]c(=O)oc3c2)CC1 (as salt: HCl) [Example 55, 6-(trans-4-{[3-(2,3,4-Trifluorophenyl)propyl]methylamino}cyclohexyl)-3H-benzoxazol-2-one] | 269 to 274 °C |  |
| O=c1[nH]c2ccc([C@H]3CC[C@H](NCC[S+]([O-])c4ccccc4)CC3)cc2o1 (stereo partly drawn) (as salt: HCl) [Example 15, 6-[trans-4-(2-Benzenesulfinylethylamino)cyclohexyl]-3H-benzoxazol-2-one] | 107 to 110 °C |  |
| COc1cc2[nH]c(=O)oc2cc1[C@H]1CC[C@H](N(C)CCCc2ccc(F)cc2)CC1 (as salt: salt) [Example 65, 6-(trans-4-{[3-(4-Fluorophenyl)propyl]methylamino}cyclohexyl)-5-methoxy-3H-benzoxazol-2-one] | 239 to 242 °C |  |
| CN(CCOc1ccccc1)[C@H]1CC[C@H](c2ccc3[nH]c(=O)oc3c2)CC1 (as salt: HCl) [Example 22, 6-{trans-4-[Methyl(2-phenoxyethyl)amino]cyclohexyl}-3H-benzoxazol-2-one] | 277 to 285 °C |  |
| O=c1[nH]c2ccc([C@H]3CC[C@H](NCCSc4ccc(F)cc4)CC3)cc2o1 (as salt: HCl) [Example 8, 6-{trans-4-[2-(4-Fluorophenylsulfanyl)ethylamino]cyclohexyl}-3H-benzoxazol-2-one] | 254 to 256 °C |  |
| O=c1[nH]c2ccc([C@H]3CC[C@H](NCCS(=O)(=O)c4ccccc4)CC3)cc2o1 (as salt: HCl) [Example 16, 6-[trans-4-(2-Benzenesulfonylethylamino)cyclohexyl]-3H-benzoxazol-2-one] | 202 to 208 °C |  |
| O=c1[nH]c2ccc([C@H]3CC[C@H](N(CCO)CCCc4ccc(F)cc4)CC3)cc2o1 (as salt: HCl) [Example 29, 6-{trans-4-[[3-(4-Fluorophenyl)propyl]-(2-hydroxyethyl)amino]cyclohexyl}-3H-benzoxazol-2-one] | 259 to 262 °C |  |
| O=c1[nH]c2ccc([C@H]3CC[C@H](NCCCc4ccc(C(F)(F)F)cc4)CC3)cc2o1 (as salt: HCl) [Example 14, 6-{trans-4-[3-(4-Trifluoromethylphenyl)propylamino]cyclohexyl}-3H-benzoxazol-2-one] | 285 to 295 °C |  |
| C=CCN(CCCc1ccc(F)cc1)[C@H]1CC[C@H](c2ccc3[nH]c(=O)oc3c2)CC1 (as salt: HCl) [Example 32, 6-(trans-4-{Allyl-[3-(4-fluorophenyl)propyl]amino}cyclohexyl)-3H-benzoxazol-2-one] | 224 to 230 °C |  |
| C[C@H](CCc1ccccc1)N[C@H]1CC[C@H](c2ccc3[nH]c(=O)oc3c2)CC1 (as salt: HCl) [Example 9, 6-{trans-4-[(R)-1-Methyl-3-phenylpropylamino]cyclohexyl}-3H-benzoxazol-2-one] | 291 to 304 °C |  |
| O=c1[nH]c2ccc([C@H]3CC[C@H](N(CCCc4ccc(F)cc4)CC4CC4)CC3)cc2o1 (as salt: HCl) [Example 30, 6-(trans-4-{Cyclopropylmethyl-[3-(4-fluorophenyl)propyl]amino}cyclohexyl)-3H-benzoxazol-2-one] | 221 to 225 °C |  |
| Cc1ccc(CCCN(C)[C@H]2CC[C@H](c3ccc4[nH]c(=O)oc4c3)CC2)cc1 (as salt: HCl) [Example 21, 6-{trans-4-[Methyl-3-(p-Tolylpropyl)amino]cyclohexyl}-3H-benzoxazol-2-one] | 213 to 225 °C |  |

Second part, the compound after the results:

| melting point | IC50 [1] | Structure (SMILES) |
| --- | --- | --- |
| 269 to 272 °C |  | CN(CCCc1ccc(F)cc1F)[C@H]1CC[C@H](c2ccc3[nH]c(=O)oc3c2)CC1 (as salt: HCl) [Example 24b, 6-(trans-4-{[3-(2,4-Difluorophenyl)propyl]methylamino}cyclohexyl)-3H-benzoxazol-2-one] |
| 246 to 248 °C |  | CN(CCCc1ccsc1)[C@H]1CC[C@H](c2ccc3[nH]c(=O)oc3c2)CC1 (as salt: HCl) [Example 52b, 6-[trans-4-{[3-(3-Thiophen-3-yl)propyl]methylamino}cyclohexyl)-3H-benzoxazol-2-one] |
| 61 to 70 °C | 0.032 µM | CC(CCN(C)[C@H]1CC[C@H](c2ccc3[nH]c(=O)oc3c2)CC1)c1ccccc1 (stereo partly drawn) [Example 37b, 6-[trans-4-(Methyl-3-phenylbutylamino)cyclohexyl]-3H-benzoxazol-2-one] |
| 263 to 265 °C |  | Cc1ccc(CCCN[C@H]2CC[C@@H](c3ccc4[nH]c(=O)oc4c3)CC2)cc1 (as salt: HCl) [Example 13a, 6-[cis-4-(3-p-Tolylpropylamino)cyclohexyl]-3H-benzoxazol-2-one] |
| 210 to 238 °C |  | CN(CCCc1cccc(F)c1)[C@H]1CC[C@H](c2ccc3[nH]c(=O)oc3c2)CC1 (as salt: HCl) [Example 47b, 6-(trans-4-{[3-(3-Fluorophenyl)propyl]methylamino}cyclohexyl)-3H-benzoxazol-2-one] |
| 247 to 251 °C |  | CN(CCCC1CCCCC1)[C@H]1CC[C@H](c2ccc3[nH]c(=O)oc3c2)CC1 (as salt: HCl) [Example 49b, 6-{trans-4-[(3-Cyclohexylpropyl)methylamino]cyclohexyl}-3H-benzoxazol-2-one] |
| 241 to 243 °C |  | O=c1[nH]c2ccc([C@H]3CC[C@H](NCCSc4ccccc4)CC3)cc2o1 (as salt: HCl) [Example 5a, 6-[trans-4-(2-Phenylsulfanylethylamino)cyclohexyl]-3H-benzoxazol-2-one] |
| 264 to 269 °C |  | Cc1c(F)cccc1CCCN(C)[C@H]1CC[C@H](c2ccc3[nH]c(=O)oc3c2)CC1 (as salt: HCl) [Example 48b, 6-(trans-4-{[3-(3-Fluoro-2-methylphenyl)propyl]methylamino}cyclohexyl)-3H-benzoxazol-2-one] |
